From ChEMBL document CHEMBL1151601, “Probing the binding site of the penicillin side-chain based on the tipper-strominger hypothesis” (1993)
≈ marks a conversion by molar mass, not a printed value.

Tests used:
Escherichia coli [1] = test: Concentration required for 90 percent inhibition of [14C]- pen-G binding to Escherichia coli DCO PBP5/6 40 KDa
Staphylococcus aureus [2] = test: Tested for minimum inhibitory concentration against Staphylococcus aureus ATCC 25293; format: functional
Escherichia coli [3] = test: Concentration required for 90 percent inhibition of [14C]- pen-G binding to Escherichia coli DCO PBP1b 90 KDa
Staphylococcus aureus [4] = test: Concentration required for 90 percent inhibition of [14C]- pen-G binding to Staphylococcus aureus ATCC 25293 PBP2 80 KDa
Staphylococcus aureus [5] = test: Concentration required for 90 percent inhibition of [14C]- pen-G binding to Staphylococcus aureus ATCC 25293 PBP1 87 KDa
Escherichia coli [6] = test: Concentration required for 90 percent inhibition of [14C]- pen-G binding to Escherichia coli DCO PBP3 60 KDa
Escherichia coli [7] = test: Concentration required for 90 percent inhibition of [14C]- pen-G binding to Escherichia coli DCO PBP2 66 KDa
Escherichia coli [8] = test: Tested for minimum inhibitory concentration against Escherichia coli DC2; format: functional
Escherichia coli [9] = test: Tested for minimum inhibitory concentration against Escherichia coli DCO; format: functional
Escherichia coli [10] = test: Concentration required for 90 percent inhibition of [14C]- pen-G binding to Escherichia coli DCO PBP4 49 KDa
Escherichia coli [11] = test: Concentration required for 90 percent inhibition of [14C]- pen-G binding to Escherichia coli DCO PBP1a 90 KDa
Staphylococcus aureus [12] = test: Concentration required for 90 percent inhibition of [14C]- pen-G binding to Staphylococcus aureus ATCC 25293 PBP3 75 KDa
Staphylococcus aureus [13] = test: Concentration required for 90 percent inhibition of [14C]- pen-G binding to Staphylococcus aureus ATCC 25293 PBP4 41 KDa
Staphylococcus aureus [14] = test: Concentration required for 90 percent inhibition of [14C]- pen-G binding to Staphylococcus aureus Penicillin-binding protein (ATCC 25293 PBP1 87 KDa)
Escherichia coli [15] = test: Concentration required for 90 percent inhibition of [14C]- pen-G binding to Escherichia coli Penicillin-binding protein (DCO PBP1a 90 KDa)
Escherichia coli [16] = test: Concentration required for 90 percent inhibition of [14C]- pen-G binding to Escherichia coli Penicillin-binding protein (DCO PBP2 66 KDa)
Escherichia coli [17] = test: Concentration required for 90 percent inhibition of [14C]- pen-G binding to Escherichia coli Penicillin-binding protein (DCO PBP5/6 40 KDa)
Escherichia coli [18] = test: Concentration required for 90 percent inhibition of [14C]- pen-G binding to Escherichia coli Penicillin-binding protein (DCO PBP1b 90 KDa)
Escherichia coli [19] = test: Concentration required for 90 percent inhibition of [14C]- pen-G binding to Escherichia coli Penicillin-binding protein (DCO PBP4 49 KDa)
Staphylococcus aureus [20] = test: Concentration required for 90 percent inhibition of [14C]- pen-G binding to Staphylococcus aureus Penicillin-binding protein (ATCC 25293 PBP2 80 KDa)
Escherichia coli [21] = test: Concentration required for 90 percent inhibition of [14C]- pen-G binding to Escherichia coli Penicillin-binding protein (DCO PBP3 60 KDa)

Structure (SMILES): CC1(C)S[C@@H]2[C@H](NC(=O)[C@H](CCCCN)c3ccccc3)C(=O)N2[C@H]1C(=O)O
- Concentration (Escherichia coli [1]): > 100 µg/mL
- MIC (Staphylococcus aureus [2]): > 100 µg/mL
- Concentration (Escherichia coli [3]): 100 µg/mL
- Concentration (Staphylococcus aureus [4]): 100 µg/mL
- Concentration (Staphylococcus aureus [5]): 100 µg/mL
- Concentration (Escherichia coli [6]): 10 µg/mL
- Concentration (Escherichia coli [7]): 30 µg/mL
- MIC (Escherichia coli [8]): > 100 µg/mL
- MIC (Escherichia coli [9]): > 100 µg/mL
- Concentration (Escherichia coli [10]): 10 µg/mL
- Concentration (Escherichia coli [11]): 30 µg/mL
- Concentration (Staphylococcus aureus [12]): > 100 µg/mL

Structure (SMILES): CC1(C)S[C@@H]2[C@H](NC(=O)[C@@H](CCCCN)c3ccccc3)C(=O)N2[C@H]1C(=O)O
- Concentration (Escherichia coli [1]): > 100 µg/mL
- MIC (Staphylococcus aureus [2]): 5 µg/mL (≈ 12.3 µM)
- Concentration (Escherichia coli [3]): 100 µg/mL
- Concentration (Staphylococcus aureus [4]): 30 µg/mL
- Concentration (Staphylococcus aureus [5]): 30 µg/mL
- Concentration (Escherichia coli [6]): 100 µg/mL
- Concentration (Escherichia coli [7]): 30 µg/mL
- MIC (Escherichia coli [8]): 5 µg/mL (≈ 12.3 µM)
- MIC (Escherichia coli [9]): 100 µg/mL (≈ 247 µM)
- Concentration (Escherichia coli [10]): 30 µg/mL
- Concentration (Escherichia coli [11]): 10 µg/mL
- Concentration (Staphylococcus aureus [12]): > 100 µg/mL

Structure (SMILES): CC(=O)NCCCC[C@H](C(=O)N[C@@H]1C(=O)N2[C@@H]1SC(C)(C)[C@@H]2C(=O)O)c1ccccc1
- Concentration (Escherichia coli [1]): > 100 µg/mL
- MIC (Staphylococcus aureus [2]): 20 µg/mL (≈ 44.7 µM)
- Concentration (Escherichia coli [3]): 100 µg/mL
- Concentration (Staphylococcus aureus [4]): 100 µg/mL
- Concentration (Staphylococcus aureus [5]): 30 µg/mL
- Concentration (Escherichia coli [6]): 30 µg/mL
- Concentration (Escherichia coli [7]): 30 µg/mL
- MIC (Escherichia coli [8]): > 100 µg/mL
- MIC (Escherichia coli [9]): > 100 µg/mL
- Concentration (Escherichia coli [10]): 30 µg/mL
- Concentration (Escherichia coli [11]): 30 µg/mL
- Concentration (Staphylococcus aureus [12]): > 100 µg/mL

Structure (SMILES): CC(=O)NCCCC[C@@H](C(=O)N[C@@H]1C(=O)N2[C@@H]1SC(C)(C)[C@@H]2C(=O)O)c1ccccc1
- Concentration (Escherichia coli [1]): > 100 µg/mL
- MIC (Staphylococcus aureus [2]): > 20 µg/mL
- Concentration (Escherichia coli [3]): > 100 µg/mL
- Concentration (Staphylococcus aureus [4]): > 100 µg/mL
- Concentration (Staphylococcus aureus [5]): 100 µg/mL
- Concentration (Escherichia coli [6]): 100 µg/mL
- Concentration (Escherichia coli [7]): > 100 µg/mL
- MIC (Escherichia coli [8]): > 20 µg/mL
- MIC (Escherichia coli [9]): > 100 µg/mL
- Concentration (Escherichia coli [10]): 100 µg/mL
- Concentration (Escherichia coli [11]): > 100 µg/mL
- Concentration (Staphylococcus aureus [12]): > 100 µg/mL

Structure (SMILES): CC1(C)S[C@@H]2[C@H](NC(=O)Cc3ccccc3)C(=O)N2[C@H]1C(=O)O [PENICILLIN G]
- Concentration (Escherichia coli [1]): > 100 µg/mL
- MIC (Staphylococcus aureus [2]): < 0.05 µg/mL
- Concentration (Escherichia coli [3]): 10 µg/mL
- Concentration (Staphylococcus aureus [4]): 0.1 µg/mL
- Concentration (Staphylococcus aureus [5]): 0.1 µg/mL
- Concentration (Staphylococcus aureus [13]): 10 µg/mL
- Concentration (Escherichia coli [6]): 2 µg/mL
- Concentration (Escherichia coli [7]): 10 µg/mL
- MIC (Escherichia coli [8]): 12 µg/mL (≈ 35.9 µM)
- MIC (Escherichia coli [9]): 50 µg/mL (≈ 150 µM)
- Concentration (Escherichia coli [10]): 2 µg/mL
- Concentration (Escherichia coli [11]): > 100 µg/mL
- Concentration (Staphylococcus aureus [12]): 0.1 µg/mL

Structure (SMILES): CC1(C)S[C@@H]2[C@H](NC(=O)[C@H](N)c3ccccc3)C(=O)N2[C@H]1C(=O)O [AMPICILLIN]
- Concentration (Escherichia coli [1]): 100 µg/mL
- MIC (Staphylococcus aureus [2]): 1.6 µg/mL (≈ 4.58 µM)
- Concentration (Escherichia coli [3]): 10 µg/mL
- Concentration (Staphylococcus aureus [4]): 2 µg/mL
- Concentration (Staphylococcus aureus [5]): 0.1 µg/mL
- Concentration (Staphylococcus aureus [13]): > 100 µg/mL
- Concentration (Escherichia coli [6]): 2 µg/mL
- Concentration (Escherichia coli [7]): 0.5 µg/mL
- MIC (Escherichia coli [8]): 0.4 µg/mL (≈ 1.14 µM)
- Concentration (Escherichia coli [10]): 0.1 µg/mL
- Concentration (Escherichia coli [11]): 2 µg/mL
- Concentration (Staphylococcus aureus [12]): 0.1 µg/mL

Structure (SMILES): CC1(C)SC2C(NC(=O)Cc3ccccc3)C(=O)N2[C@H]1C(=O)O (stereo partly drawn)
- Concentration (Staphylococcus aureus [14]): 2 µg/mL
- Concentration (Escherichia coli [15]): > 100 µg/mL
- Concentration (Escherichia coli [16]): > 100 µg/mL
- MIC (Staphylococcus aureus [2]): > 20 µg/mL
- Concentration (Escherichia coli [17]): > 100 µg/mL
- Concentration (Escherichia coli [18]): > 100 µg/mL
- Concentration (Escherichia coli [19]): 100 µg/mL
- Concentration (Staphylococcus aureus [13]): > 100 µg/mL
- Concentration (Staphylococcus aureus [20]): > 100 µg/mL
- Concentration (Escherichia coli [21]): 100 µg/mL
